# From US5248667A, “Method of treating psoriasis using synthetic peptide compositions” (The United States of America as represented by the …, priority 1991, dated 1993)
# System: normal volunteers
# Assay: CNS or immunologic toxicity in volunteers
# Format: in vivo, human
# Conditions: all patients / normal volunteers
# Experimental: 1. 6 male research subjects with histories of substance abuse, childhood dyslexia, and depression, have received Peptide T intravenously in doses ranging from 0.033 mg/kg to 0.133 mg/kg per day for seven days.
# 2. a WM HIV seronegative normal volunteer received Peptide T both intranasally and sublingually at 12.5 mg BID for one week coincidentally reported improvement in multiple red, scaling pruritic areas located in scalp and lower neck areas. This individual has a history of mild psoriasis which, by personal choice, has been treated with only topical treatments including hydrocortisone, coal tar derivatives, and calamine lotion.
# 3. No evidence of either CNS or immunologic toxicity associated with drug administration was aobserved in any of these patients in any of these normal volunteers.
smiles,measurement,value
"C[C@@H](N)C(=O)N[C@@H](CO)C(=O)N[C@H](C(=O)N[C@H](C(=O)N[C@H](C(=O)N[C@@H](CC(N)=O)C(=O)N[C@@H](Cc1ccc(O)cc1)C(=O)N[C@H](C(N)=O)[C@@H](C)O)[C@@H](C)O)[C@@H](C)O)[C@@H](C)O [Peptide T, D-Ala-Ser-Thr-Thr-Thr-Asn-Tyr-Thr-amide]",CNS or immunologic toxicity associated with drug administration,No evidence
